Experimental data as given in US11802111B2, “Cyclobutyl amide monoacylglycerol lipase modulators” (Janssen Pharmaceutica NV, priority 2020, dated 2023).

Target: human MGL from HeLa cells (Homo sapiens (Human), UniProt Q99685)
Test: MGL in vitro activity assay ([glycerol-1,3-3H]-oleoyl glycerol hydrolysis, activated carbon filtration)
Assay type: biochemical
Settings: 300 nM [Glycerol-1,3-3H]-oleoyl glycerol, one hour
Procedure, shortened: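 Endogenous human MGL in HeLa cells/homogenates incubated 1 h with test compounds and 300 nM [glycerol-1,3-3H]-oleoyl glycerol. Released 3H-glycerol passing an activated carbon filter counted as activity; screening at 10 μM compound, top IC50 concentration set empirically.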

human MGL from HeLa cells, sequence (Q99685 whole entry): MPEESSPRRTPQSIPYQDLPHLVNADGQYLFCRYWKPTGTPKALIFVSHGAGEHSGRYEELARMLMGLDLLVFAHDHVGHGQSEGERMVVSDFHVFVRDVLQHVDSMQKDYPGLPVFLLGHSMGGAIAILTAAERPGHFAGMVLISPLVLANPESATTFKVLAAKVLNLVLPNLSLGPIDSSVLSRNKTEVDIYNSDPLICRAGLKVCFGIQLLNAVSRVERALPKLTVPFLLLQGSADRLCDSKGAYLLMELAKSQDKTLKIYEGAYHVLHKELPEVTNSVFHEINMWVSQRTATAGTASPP

Row | Structure (SMILES) | IC50 [nM]
1 | COc1cc(C2CC2)cc(C2CCC3(CC2)CN(C(=O)[C@H]2C[C@@](C)(O)C2)C3)c1 [Example 141, (7-(3-Cyclopropyl-5-methoxyphenyl)-2-azaspiro[3.5]nonan-2-yl)((1s,3s)-3-hydroxy-3-methylcyclobutyl)methanone] | 20
2 | COc1ccc(C2CCC3(CC2)CN(C(=O)[C@H]2C[C@@](C)(O)C2)C3)cc1C1CC1 [Example 142, (7-(3-Cyclopropyl-4-methoxyphenyl)-2-azaspiro[3.5]nonan-2-yl)((1s,3s)-3-hydroxy-3-methylcyclobutyl)methanone] | 121
3 | Cc1cc(C2CC2)cc(C2CCC3(CC2)CN(C(=O)[C@H]2C[C@@](C)(O)C2)C3)c1 [Example 143, (7-(3-Cyclopropyl-5-methylphenyl)-2-azaspiro[3.5]nonan-2-yl)((1s,3s)-3-hydroxy-3-methylcyclobutyl)methanone] | 4.5
4 | CCc1cccc(C2CCC3(CC2)CN(C(=O)[C@H]2C[C@@](C)(O)C2)C3)c1OC [Example 144, (7-(3-Ethyl-2-methoxyphenyl)-2-azaspiro[3.5]nonan-2-yl)((1s,3s)-3-hydroxy-3-methylcyclobutyl)methanone] | 16
5 | CCc1cc(OC)cc(C2CCC3(CC2)CN(C(=O)[C@H]2C[C@@](C)(O)C2)C3)c1 [Example 145, (7-(3-Ethyl-5-methoxyphenyl)-2-azaspiro[3.5]nonan-2-yl)((1s,3s)-3-hydroxy-3-methylcyclobutyl)methanone] | 31
6 | CCc1cc(C2CCC3(CC2)CN(C(=O)[C@H]2C[C@@](C)(O)C2)C3)cc(C(F)(F)F)c1 [Example 146, (7-(3-Ethyl-5-(trifluoromethyl)phenyl)-2-azaspiro[3.5]nonan-2-yl)((1s,3s)-3-hydroxy-3-methylcyclobutyl)methanone] | 4.6
7 | Cc1cc(C)cc(C2CCC3(CC2)CN(C(=O)[C@H]2C[C@@](C)(O)C2)C3)c1 [Example 147, (7-(3,5-Dimethylphenyl)-2-azaspiro[3.5]nonan-2-yl)((1s,3s)-3-hydroxy-3-methylcyclobutyl)methanone] | 6.4
8 | CCc1cc(OC(F)(F)F)cc(C2CCC3(CC2)CN(C(=O)[C@H]2C[C@@](C)(O)C2)C3)c1 [Example 148, (7-(3-Ethyl-5-(trifluoromethoxy)phenyl)-2-azaspiro[3.5]nonan-2-yl)((1s,3s)-3-hydroxy-3-methylcyclobutyl)methanone] | 9.4
9 | C[C@]1(O)C[C@@H](C(=O)N2CC3(CCC(c4cc(Cl)cc(OC(F)(F)F)c4)CC3)C2)C1 [Example 149, (7-(3-Chloro-5-(trifluoromethoxy)phenyl)-2-azaspiro[3.5]nonan-2-yl)((1s,3s)-3-hydroxy-3-methylcyclobutyl)methanone] | 1.7
10 | CCOc1ccc(C2CCC3(CC2)CN(C(=O)[C@H]2C[C@@](C)(O)C2)C3)cc1C(F)(F)F [Example 150, (7-(4-Ethoxy-3-(trifluoromethyl)phenyl)-2-azaspiro[3.5]nonan-2-yl)((1s,3s)-3-hydroxy-3-methylcyclobutyl)methanone] | 17
11 | CC(C)c1cccc(C2(O)CCC3(CC2)CN(C(=O)[C@H]2C[C@@](C)(O)C2)C3)c1 [Example 151, ((1s,3s)-3-Hydroxy-3-methylcyclobutyl)(7-hydroxy-7-(3-isopropylphenyl)-2-azaspiro[3.5]nonan-2-yl)methanone] | 4.6
12 | CC(C)(C)c1cccc(C2CC3(CCN(C(=O)[C@H]4C[C@@](C)(O)C4)CC3)C2)c1 [Example 153, (2-(3-(tert-Butyl)phenyl)-7-azaspiro[3.5]nonan-7-yl)((1s,3s)-3-hydroxy-3-methylcyclobutyl)methanone] | 22
13 | Cc1c(CC2CC3(C2)CN(C(=O)[C@H]2C[C@@](C)(O)C2)C3)cccc1C1CC1 [Example 154, (6-(3-Cyclopropyl-2-methylbenzyl)-2-azaspiro[3.3]heptan-2-yl)((1s,3s)-3-hydroxy-3-methylcyclobutyl)methanone] | 1.7
14 | Cc1c(CC2CC3(C2)CN(C(=O)[C@H]2C[C@@](C)(O)C2)C3)cccc1C(F)(F)F [Example 155, ((1s,3s)-3-Hydroxy-3-methylcyclobutyl)(6-(2-methyl-3-(trifluoromethyl)benzyl)-2-azaspiro[3.3]heptan-2-yl)methanone] | 3
15 | Cc1cccc(CC2CC3(C2)CN(C(=O)[C@H]2C[C@@](C)(O)C2)C3)c1C [Example 156, (6-(2,3-Dimethylbenzyl)-2-azaspiro[3.3]heptan-2-yl)((1s,3s)-3-hydroxy-3-methylcyclobutyl)methanone] | 11
16 | C[C@]1(O)C[C@@H](C(=O)N2CC3(CC(Cc4cccc(OC(F)F)c4)C3)C2)C1 [Example 157, (6-(3-(Difluoromethoxy)benzyl)-2-azaspiro[3.3]heptan-2-yl)((1s,3s)-3-hydroxy-3-methylcyclobutyl)methanone] | 29
17 | CCc1ccccc1CC1CC2(C1)CN(C(=O)[C@H]1C[C@@](C)(O)C1)C2 [Example 158, (6-(2-Ethylbenzyl)-2-azaspiro[3.3]heptan-2-yl)((1s,3s)-3-hydroxy-3-methylcyclobutyl)methanone] | 9.2
18 | Cc1cccc(CC2CCC3(CC2)CN(C(=O)[C@H]2C[C@@](C)(O)C2)C3)c1 [Example 159, ((1s,3s)-3-Hydroxy-3-methylcyclobutyl)(7-(3-methylbenzyl)-2-azaspiro[3.5]nonan-2-yl)methanone] | 31

Row | Structure (SMILES) | IC50 [nM]
19 | C[C@]1(O)C[C@@H](C(=O)N2CC3(CCC(Cc4cccc(OC(F)F)c4)CC3)C2)C1 [Example 160, (7-(3-(Difluoromethoxy)benzyl)-2-azaspiro[3.5]nonan-2-yl)((1s,3s)-3-hydroxy-3-methylcyclobutyl)methanone] | 38
20 | C[C@]1(O)C[C@@H](C(=O)N2CC3(CCC(Cc4ccc(OC(F)F)cc4)CC3)C2)C1 [Example 161, (7-(4-(Difluoromethoxy)benzyl)-2-azaspiro[3.5]nonan-2-yl)((1s,3s)-3-hydroxy-3-methylcyclobutyl)methanone] | 19
21 | C[C@]1(O)C[C@@H](C(=O)N2CC3(CCC(Cc4ccc(C(F)F)cc4)CC3)C2)C1 [Example 162, (7-(4-(Difluoromethyl)benzyl)-2-azaspiro[3.5]nonan-2-yl)((1s,3s)-3-hydroxy-3-methylcyclobutyl)methanone] | 29
22 | C[C@]1(O)C[C@@H](C(=O)N2CC3(CCC(Cc4cccc(C(F)F)c4)CC3)C2)C1 [Example 163, (7-(3-(Difluoromethyl)benzyl)-2-azaspiro[3.5]nonan-2-yl)((1s,3s)-3-hydroxy-3-methylcyclobutyl)methanone] | 61
23 | C[C@]1(O)C[C@@H](C(=O)N2CC3(CC(Cc4ccccc4)C3)C2)C1 [Example 164, (6-Benzyl-2-azaspiro[3.3]heptan-2-yl)((1s,3s)-3-hydroxy-3-methylcyclobutyl)methanone] | 52
24 | Cc1cccc(CC2CC3(C2)CN(C(=O)[C@H]2C[C@@](C)(O)C2)C3)c1 [Example 165, ((1s,3s)-3-Hydroxy-3-methylcyclobutyl)(6-(3-methylbenzyl)-2-azaspiro[3.3]heptan-2-yl)methanone] | 21
25 | Cc1ccc(CC2CC3(C2)CN(C(=O)[C@H]2C[C@@](C)(O)C2)C3)cc1 [Example 166, ((1s,3s)-3-Hydroxy-3-methylcyclobutyl)(6-(4-methylbenzyl)-2-azaspiro[3.3]heptan-2-yl)methanone] | 14
26 | C[C@]1(O)C[C@@H](C(=O)N2CC3(CC(Cc4ccccn4)C3)C2)C1 [Example 167, ((1s,3s)-3-Hydroxy-3-methylcyclobutyl)(6-(pyridin-2-ylmethyl)-2-azaspiro[3.3]heptan-2-yl)methanone] | 1390
27 | C[C@]1(O)C[C@@H](C(=O)N2CC3(CC(Cc4cccnc4)C3)C2)C1 [Example 168, ((1s,3s)-3-Hydroxy-3-methylcyclobutyl)(6-(pyridin-3-ylmethyl)-2-azaspiro[3.3]heptan-2-yl)methanone] | 1370
28 | C[C@]1(O)C[C@@H](C(=O)N2CCC3(CC2)CC(Cc2ccccc2)C3)C1 [Example 172, (2-Benzyl-7-azaspiro[3.5]nonan-7-yl)((1s,3s)-3-hydroxy-3-methylcyclobutyl)methanone] | 74
29 | Cc1ccc(CC2CC3(CCN(C(=O)[C@H]4C[C@@](C)(O)C4)CC3)C2)cc1 [Example 173, ((1s,3s)-3-Hydroxy-3-methylcyclobutyl)(2-(4-methylbenzyl)-7-azaspiro[3.5]nonan-7-yl)methanone] | 28
30 | Cc1ccccc1CC1CC2(C1)CN(C(=O)[C@H]1C[C@@](C)(O)C1)C2 [Example 184, ((1s,3s)-3-Hydroxy-3-methylcyclobutyl)(6-(2-methylbenzyl)-2-azaspiro[3.3]heptan-2-yl)methanone] | 14
31 | CC(C)c1ccc(CC2CC3(C2)CN(C(=O)[C@H]2C[C@@](C)(O)C2)C3)cc1 [Example 185, ((1s,3s)-3-Hydroxy-3-methylcyclobutyl)(6-(4-isopropylbenzyl)-2-azaspiro[3.3]heptan-2-yl)methanone] | 2.3
32 | CC(C)c1cccc(CC2CC3(C2)CN(C(=O)[C@H]2C[C@@](C)(O)C2)C3)c1 [Example 186, ((1s,3s)-3-Hydroxy-3-methylcyclobutyl)(6-(3-isopropylbenzyl)-2-azaspiro[3.3]heptan-2-yl)methanone] | 4.7
33 | CC(C)c1ccccc1CC1CC2(C1)CN(C(=O)[C@H]1C[C@@](C)(O)C1)C2 [Example 187, ((1s,3s)-3-Hydroxy-3-methylcyclobutyl)(6-(2-isopropylbenzyl)-2-azaspiro[3.3]heptan-2-yl)methanone] | 12
34 | Cc1ccc(CC2CC3(C2)CN(C(=O)[C@H]2C[C@@](C)(O)C2)C3)cc1C [Example 188, (6-(3,4-Dimethylbenzyl)-2-azaspiro[3.3]heptan-2-yl)((1s,3s)-3-hydroxy-3-methylcyclobutyl)methanone] | 4.3
35 | Cc1ccc(CC2CC3(C2)CN(C(=O)[C@H]2C[C@@](C)(O)C2)C3)cc1C(F)(F)F [Example 189, ((1s,3s)-3-Hydroxy-3-methylcyclobutyl)(6-(4-methyl-3-(trifluoromethyl)benzyl)-2-azaspiro[3.3]heptan-2-yl)methanone] | 3.5
